Measurements reported in US20200093835A1, “METHODS OF TREATING VESTIBULAR SCHWANNOMA” (Massachusetts Eye and Ear Infirmary, priority 2017, published 2020).

Key:
[1] = test system: HEI-193 cells; test: Cell confluence and phase contrast imaging (IncuCyte), HEI-193; format: cell-based, human
Procedure: HEI-193 cells are derived from a patient with sporadic bilateral vestibular schwannomas and a history of meningioma; these cells express a splice variant of the merlin protein (encoded by the NF2 gene), but neither typical isoform^52. HEI-193 cells were cultured in DMEM/F12-containing medium with 10% fetal bovine serum and 1% penicillin and streptomycin mix as described above. Immortalized NF2-null and NF2-expressing arachnoid AC-CRISPR cell lines derived from primary human autopsy specimens were obtained via generous gift from Dr. Vijaya Ramesh at Massachusetts General Hospital^40. NF2-null and NF2-expressing arachnoid cells were cultured in DMEM with 15% fetal bovine serum and 1% penicillin and streptomycin mix. […]
Cytotoxicity and cell confluence were measured using live-cell, time-lapse phase contrast and fluorescence imaging acquired at 10× by an IncuCyte S3 instrument (Essen Bioscience). Cytotoxicity was measured by incorporation of IncuCyte Cytotox Reagent (Essen Bioscience), applied according to manufacturer's instructions; the reagent fluoresces when it binds DNA after compromise of membrane integrity. […] Phase object confluence was measured using time-lapse phase contrast imaging acquired at 10× by the same instrument, analyzing 9 images per well every 2 hours for 72 hours, and is reported as percent confluence per square millimeter.

[2] = in vivo; cited from earlier work
[3] = test system: HEI-193 cells; test: Caspase 3/7 activation by live-cell imaging, HEI-193; format: cell-based, human; details: 70 μM and 35 μM, over 100 h, versus vehicle
[4] = test system: HEI-193 cells; test: Cell cycle analysis; format: cell-based, human; details: 72 h treatment
Procedure: Harvested HEI-193 cells were washed in PBS and fixed in cold 70% ethanol at −20° C. for 18-72 h. Before staining with propidium iodide (PI), cells were centrifuged and washed again in cold PBS. 2×10^6 or fewer cells were incubated with 500 μl staining solution [0.1% Triton X-100 (Sigma), 2 mg/ml RNase A (Qiagen), and 1 μg/ml PI (Miltenyi Biotec) in PBS] for 15 minutes at 37° C. In order to exclude DNAse activity, RNase A was boiled for 5 minutes and cooled down before its addition to staining solution. Cells were analyzed on a Cytomics FC500 flow cytometer using CXP Analysis software (version 2.2, Coulter).

[5] = test system: HEI-193 human schwannoma cells; test: Metabolic activity (MTT) assay, HEI-193; format: cell-based; details: for HEI-193 cell metabolic activity: 72 h; for metabolic activity of HEI-193 cells: preliminary testing, clinically reasonable concentrations
Procedure: (§1) HEI-193 cells are derived from a patient with sporadic bilateral vestibular schwannomas and a history of meningioma; these cells express a splice variant of the merlin protein (encoded by the NF2 gene), but neither typical isoform^52. HEI-193 cells were cultured in DMEM/F12-containing medium with 10% fetal bovine serum and 1% penicillin and streptomycin mix as described above. Immortalized NF2-null and NF2-expressing arachnoid AC-CRISPR cell lines derived from primary human autopsy specimens were obtained via generous gift from Dr. Vijaya Ramesh at Massachusetts General Hospital^40. NF2-null and NF2-expressing arachnoid cells were cultured in DMEM with 15% fetal bovine serum and 1% penicillin and streptomycin mix. All cell lines were maintained in an incubator at 37 degrees Celsius with 5% carbon dioxide and treated with drugs 24-36 hours after seeding at between 15,000-25,000 cells per well in 24-well plates. Phase contrast photos of healthy and drug-treated cultures were taken at 10× magnification on an IncuCyte S3 instrument (Essen Bio).
Cultures were incubated with drug-containing medium or 0.1% DMSO vehicle for 72 hours and then processed for downstream applications.
The metabolic activity of primary VS and HEI-193 cells was assessed using the colorimetric 3-(4,5-dimethylthiazol-2-yl)-2,5-diphenyltetrazolium bromide (MTT) assay (Life Technologies). After 72-hour incubation of cells in a 24-well plate with medium containing drug or vehicle, culture medium was replaced with 362 μL of colorless DMEM and 38 μL of 12 mM MTT in 3-6 random wells. Cells were incubated for an additional 4 hours. The resulting formazan crystals were dissolved in 380 μL of a solution of 100 mg/mL sodium dodecyl sulfate in 0.01 M HCl and incubated for another 4 hours. Optical density (OD) at 570 nm of each well was detected using a spectrophotometer. The average OD value of cells exposed to vehicle (0.1% DMSO) was set to 100% and used to normalize OD values of cells treated with drugs; metabolic activity was then reported as percent change. Statistical testing was performed on raw OD values (see Statistical Methods).

[6] = test system: HEI-193 cells; test: TUNEL assay, HEI-193; format: cell-based, human; details: 72 h, versus vehicle
[7] = test system: HEI-193 cells; test: Flow cytometry, annexin V/propidium iodide staining; format: cell-based, human; details: 35 μM, 72 h, versus vehicle
Procedure: Apoptotic cell death was assessed using an Annexin V/propidium iodide (PI) staining kit (Miltenyi Biotec). […] Adherent cells were collected by trypsinization, and non-adherent (floating) cells were collected from culture medium. Cells were centrifuged, washed in PBS, and incubated in 1× annexin binding buffer, annexin V-fluorescein isothiocyanate (FITC), and propidium iodide (PI) according to the manufacturer's recommendations. Stained cells were immediately analyzed using a Cytomics FC500 flow cytometer. Data were analyzed using CXP Analysis software (version 2.2, Coulter).

[8] = test system: unresectable meningioma; details: cited from earlier work
[9] = test system: primary human Schwann cells; test: Metabolic activity (MTT) assay, primary Schwann cells; format: cell-based; details: p=0.23
[10] = test system: primary human VS cells; test: Metabolic activity (MTT) assay, primary VS cells; format: cell-based
Procedure: Written informed consent was obtained from all subjects prior to inclusion in this study and all procedures were conducted in accordance with the Helsinki Declaration of 1975. Detailed methods for human surgical specimen collection, processing, and culture are previously published^38. VS specimens were harvested from patients undergoing surgical tumor resection, and GAN specimens from healthy patients undergoing benign parotidectomy or neck dissection surgery, during which the GAN is routinely sacrificed. Patients who had received radiation therapy prior to surgery were excluded.
Briefly, after surgical resection, VS or GAN tissue was immediately placed in saline solution and transported to the laboratory on ice. Specimens were rinsed with Hank's Balanced Salt Solution (HBSS, ThermoFisher Scientific), dissected to remove burned tissue and blood vessels, and separated for RNA preservation (RNALater, ThermoFisher Scientific) or primary cell culture. […]
(§2) The metabolic activity of primary VS and HEI-193 cells was assessed using the colorimetric 3-(4,5-dimethylthiazol-2-yl)-2,5-diphenyltetrazolium bromide (MTT) assay (Life Technologies). […] Optical density (OD) at 570 nm of each well was detected using a spectrophotometer. […]

[11] = test system: HEI-193 cells; test: ELISA for progesterone in conditioned cell culture medium; format: cell-based, human; details: 35 μM versus 0.1% DMSO vehicle; p=0.08
Procedure: Cell-conditioned medium was collected from mifepristone-treated and untreated HEI-193 cells after 72-hour incubation with the drug. Enzyme-linked immunosorbent assay (ELISA) was performed on each sample in triplicate to assess the quantity of progesterone in cell-conditioned medium, according to the manufacturer's protocol (Enzo Life Science, # ADI-900-011). Data were analyzed using GraphPad Prism 7 software licensed through Harvard Medical School.

[12] = test system: HEI-193 cells; test: Proliferation assay (BrdU incorporation), HEI-193; format: cell-based, human; details: 35 μM, 72 h; p=0.0007
Procedure: 5′bromo-2′-deoxyuridine (BrdU) was added to label proliferating cells in culture 2 hours before fixation in 4% formalin (paraformaldehyde). Cell membranes were permeabilized with 10 minutes of incubation in 1% Triton X-100 and nuclear membranes with 20 minutes in 2N hydrochloric acid (HCl). Cells were blocked in 5% normal horse serum (NHS) and 1% Triton X-100 and incubated with a primary antibody against BrdU (# OBT0030G, AbD Serotec) overnight, followed by incubation with fluorescent anti-rat immunoglobulin G (AlexaFluor, Life Technologies).

[13] = test system: HEI-193 cells; test: Phalloidin staining of f-actin, HEI-193; format: cell-based, human; details: 35 μM, 72 hours
[14] = test system: AC-CRISPR NF2(−/−) and AC-CRISPR NF2(+/+) human arachnoid cells; test: Metabolic viability, arachnoid cells versus schwannoma cells; format: cell-based
Procedure: as §1, §2

[15] = test system: primary human VS cells; test: Proliferation assay (BrdU incorporation), primary VS cells
[16] = test system: primary human VS cells; test: Cytotoxicity assay (IncuCyte Cytotox Reagent), primary VS cells; format: cell-based; details: 35 μM, 72 hours, live cell fluorescence microscopy
Procedure: Cytotoxicity and cell confluence were measured using live-cell, time-lapse phase contrast and fluorescence imaging acquired at 10× by an IncuCyte S3 instrument (Essen Bioscience). Cytotoxicity was measured by incorporation of IncuCyte Cytotox Reagent (Essen Bioscience), applied according to manufacturer's instructions; the reagent fluoresces when it binds DNA after compromise of membrane integrity. Nine images were acquired per well every 2 hours for 72 hours, and cytotoxicity at each time point is reported as number of fluorescent objects per well, after thresholding to avoid the inclusion of small cellular debris. Phase object confluence was measured using time-lapse phase contrast imaging acquired at 10× by the same instrument, analyzing 9 images per well every 2 hours for 72 hours, and is reported as percent confluence per square millimeter.

[17] = test system: primary VS cells; test: Cell death (TUNEL) assay, primary VS cells; format: cell-based, human; details: 25 μM, 72 h

CC#C[C@]1(O)CC[C@H]2[C@@H]3CCC4=CC(=O)CCC4=C3[C@@H](c3ccc(N(C)C)cc3)C[C@@]21C [mifepristone, 11β-(4-dimethylaminophenyl)-17β-hydroxy-17α-(1-propynyl)-estra-4,9-dien-3-one]
phase object confluence ([1]; 35 μM, 72 hours): remains constant
cell shape under treatment ([1]; phase contrast, FIG. 2C): long, thin, spindle-like shape
blood-brain barrier crossing [2]: able to cross the blood-brain barrier
caspase 3/7 activity [3]: slight but not significant elevation
phase of cell cycle [4]: no significant differences
metabolic viability of HEI-193 cells ([5]; MTT, 72 h in culture, vehicle vs 35 μM p=0.006): decreases with increasing concentration
number of TUNEL positive cells [6]: no statistically significant difference
early apoptotic cells (annexin V/propidium iodide) [7]: slight but not significant increase
outcome versus placebo ([8]; double-blind, randomized Phase III trial of 164 patients): no difference between treatment and placebo
patients with minor responses resulting in clinical benefit ([8]; long-term clinical trial, unresectable meningioma): eight of 28
metabolic viability of primary human Schwann cells [9]: does not adversely affect
metabolic activity of primary VS cells ([10]; MTT, ten tumors, vehicle vs 35 μM p=0.002): declines with increasing concentrations
progesterone in culture medium [11]: increase in progesterone in culture medium
percentage of BrdU+ HEI-193 cells [12]: significantly declines
f-actin morphology (phalloidin staining) [13]: crumpled f-actin morphology
metabolic viability, schwannoma cells compared with arachnoid cells [14]: reduces the metabolic viability of schwannoma cells more significantly
BrdU incorporation in primary VS cells ([15]; 35 μM, p=0.0002): significant decline
cytotoxicity of VS cells [16]: significant increase

C[C@H]1C[C@@H]2[C@H]([C@@H](O)C[C@@]3(C)[C@H]2CC[C@]3(O)C(=O)CO)[C@@]2(C)C=CC(=O)C=C12 [methylprednisolone]
HEI-193 cell metabolic activity ([5]; 27 μM): no significant effect
metabolic activity of HEI-193 cells [5]: no effect

gold sodium thiomalate
HEI-193 cell metabolic activity ([5]; 25, 50, 100, and 300 μM): significant effect on HEI-193 cell metabolic activity, but only at clinically unreasonable concentrations
metabolic activity of HEI-193 cells [5]: no effect

Nc1ncnc2c1ncn2[C@@H]1O[C@H](COP(=O)(O)O)[C@@H](O)[C@H]1O [ADENOSINE MONOPHOSPHATE, ADENOSINE, adenosine monophosphate]
HEI-193 cell metabolic activity ([5]; 5, 10, and 15 μM): no significant effect
metabolic activity of HEI-193 cells [5]: no effect

O=C(O)[C@@H](S)[C@@H](S)C(=O)O [succimer]
HEI-193 cell metabolic activity ([5]; 25, 50, and 100 μM): no significant effect
metabolic activity of HEI-193 cells [5]: no effect

C[C@]12C=CC(=O)C=C1CC[C@@H]1[C@@H]2[C@@H](O)C[C@@]2(C)[C@H]1CC[C@]2(O)C(=O)CO [prednisolone]
HEI-193 cell metabolic activity ([5]; 25 μM): no significant effect
metabolic activity of primary VS cells ([10]; 25 μM, 72 h): modest effect
elevation in cell death among primary VS cells versus vehicle [17]: 15.85%
proliferation of primary VS cells ([15]; 25 μM, 72 h): no effect
